According to patent publication US20050238642A1, “Modified bouganin proteins, cytotoxins and methods and uses thereof” (priority 2004, published 2005):

These substances were tested on PBMCs (peripheral blood mononuclear cells) from naive donors (assay: Naive human T-cell proliferation assay (3H-thymidine incorporation, stimulation index)). Conditions: compared with peptide 44.
Format: cell-based
Procedure: Accordingly, in the present studies, 89 synthetic 15-mer peptides (as listed in Table 1) were used in T-cell proliferation assays with PBMCs (peripheral blood mononuclear cells) from naive donors (i.e. no known sensitization to bouganin). 20 donor PBMC samples were selected to achieve an optimal coverage of MHC class II allotypes. PBMCs were stimulated with individual peptides in triplicate cultures for 7 days before proliferation was assessed by ^3H-thymidine incorporation. All peptides were diluted at two different concentrations: 1 μM and 5 μM. The stimulation indices (SI) were calculated as the amount of ^3H incorporated into the cells, divided by the amount of ^3H incorporated in mock-stimulated controls.
The peptides were used in T-cell proliferation assays with PBMCs (peripheral blood mononuclear cells) from naive donors (i.e. no known sensitization to bouganin). 20 donor PBMC were selected to get an optimal coverage of MHC class II allotypes. The allotypic coverage is in excess of 85%.
PBMCs were stimulated with individual peptides in triplicate cultures for 7 days before proliferation was assessed by ^3H-thymidine (^3H-Thy) incorporation. All peptides were tested at two different concentrations (1 μM and 5 μM). Stimulation indices (S.I.) were calculated as the amount of ^3H incorporated, divided by the amount of ^3H incorporated in mock-stimulated control cells.
Buffy coats from human blood stored for less than 12 hours were obtained from the National Blood Service (Addenbrooks Hospital, Cambridge, UK). Ficoll-paque was obtained from Amersham Pharmacia Biotech (Amersham, UK). Serum free AIM V media for the culture of primary human lymphocytes and containing L-glutamine, 50 μg/ml streptomycin, 10 μg/ml gentomycin and 0.1% human serum albumin was from Gibco-BRL (Paisley, UK). Synthetic peptides were obtained from Eurosequence (Groningen, The Netherlands) and Babraham Technix (Cambridge, UK).
Erythrocytes and leukocytes were separated from plasma and platelets by gentle centrifugation of buffy coats. The top phase (containing plasma and platelets) was removed and discarded. Erythrocytes and leukocytes were diluted 1:1 in phosphate buffered saline (PBS) before layering onto 15 ml ficoll-paque (Amersham Pharmacia, Amersham UK). Centrifugation was done according to the manufacturers recommended conditions and PBMCs were harvested from the serum+PBS/ficoll paque interface. PBMCs were mixed with PBS (1:1) and collected by centrifugation. The supernatant was removed and discarded and the PBMC pellet resuspended in 50ml PBS. Cells were again pelleted by centrifugation and the PBS supernatant discarded. Cells were resuspended using 50 ml AIM V media and at this point counted and viability assessed using trypan blue dye exclusion. Cells were again collected by centrifugation and the supernatant discarded. Cells were resuspended for cryogenic storage at a density of 3×10^7 per ml. The storage medium was 90% (v/v) heat inactivated AB human serum (Sigma, Poole, UK) and 10% (v/v) DMSO (Sigma, Poole, UK). Cells were transferred to a regulated freezing container (Sigma) and placed at −70° C. overnight. When required for use, cells were thawed rapidly in a water bath at 37° C. before transferring to 10ml pre-warmed AIM V medium.
PBMC were stimulated with protein and peptide antigens in a 96 well flat bottom plate at a density of 2×10^5 PBMC per well. PBMC were incubated for 7 days at 37° C. before pulsing with ^3H-Thy (Amersham-Pharmacia, Amersham, UK). […] C-32=sequence […] from Flu haemagglutinin residues 307-319 (SEQ ID NO:127). C-49=sequence […] from Chlamydia HSP 60 (SEQ ID NO:128).
Peptides were dissolved in DMSO to a final concentration of 10 mM, these stock solutions were then diluted 1/500 in AIM V media (final concentration 20 μM). Peptides were added to a flat bottom 96 well plate to give a final concentration of 1 and 5 μM in 100 μl. […]
For “DLELGVYKLEFSIEA [compound 43, bouganin 15-mer peptide, first amino acid 127]”, the “T cell proliferation (in words)” value was “lower level T cell proliferation”.

Same assay, conditions: compilation of 20 donors, 1 μM and 5 μM
In the case of “AKVDRKDLELGVYKL [peptide 41, bouganin 15-mer peptide, first amino acid 121]”, the “presence of T cell epitope” value is reported as “T cell epitopes”.

Same assay, conditions: donor 4, peptide at 5 μM
“AKVDRKDLELGVYKL [peptide 41, bouganin 15-mer peptide, first amino acid 121]” was tested, and the “S.I. (stimulation index)” value was 3.6.

Same assay, conditions: donor 5, peptide at 5 μM
With “AKVDRKDLELGVYKL [peptide 41, bouganin 15-mer peptide, first amino acid 121]” the “S.I. (stimulation index)” value was 4.9.

Same assay, conditions: donor 10, peptide at 5 μM
In the case of “AKVDRKDLELGVYKL [peptide 41, bouganin 15-mer peptide, first amino acid 121]”, the “S.I. (stimulation index)” value is reported as 2.1.

Same assay, conditions: donor 11, peptide at 5 μM
With “AKVDRKDLELGVYKL [peptide 41, bouganin 15-mer peptide, first amino acid 121]” the “S.I. (stimulation index)” value was 2.0.

Same assay, conditions: of 20 donor PBMC samples
In the case of “AKVDRKDLELGVYKL [peptide 41, bouganin 15-mer peptide, first amino acid 121]”, the responsive donors is reported as “four”.

The substances below were run on cell-free protein synthesis (assay: Cell-free protein synthesis assay (luciferase, coupled transcription/translation)). Conditions: multiple substitution variants, relative to wild-type protein.
Format: biochemical
Set-up: key to Activity in luciferase assay: ++: same or higher than WT protein.; +: within 2-fold of WT activity.; +/−: within 3-fold of WT activity.; −−: less than one-third of WT activity
Source text: The term “biological activity” as used herein is the ability of the modified or non-modified bouganin protein to inhibit protein synthesis on ribosomes, which can be assessed in a number of ways. It should be noted that a modified bouganin protein will still have biological activity even if such activity is lower than that of the non-modified protein, however it would need to have some level of detectable activity. For example, the biological activity of the modified or non-modified bouganin protein can be assessed by identifying their N-glycosidase activity, and in particular with sufficient activity to provide significant inhibition of protein translation. One such suitable assay involves testing the activity of the variant bouganin proteins in comparison to non-modified bouganin in a cell-free protein synthesis assay. A coupled transcription/translation mix containing methionine, DNA encoding the reporter protein luciferase and serial dilutions of non-modified and modified bouganin protein are co-incubated. The levels of translated luciferase are readily detected using a luminescence counter following addition of a substrate reagent. The measured luminescence is inversely proportional to the bouganin N-glycosidase activity present in the reaction. It is usual to provide a negative control such as an in-active bouganin protein, for example containing a Y70A substitution.
The biological activity of the proteins of the invention can equally be assessed in many ways. In one embodiment, modified bouganin molecules are identified with N-glycosidase activity, and in particular with sufficient activity to provide significant inhibition of protein translation. One such suitable assay involves testing the activity of the modified bouganin proteins in comparison to non-modified bouganin in a cell-free protein synthesis assay. A coupled transcription/translation mix containing methionine, DNA encoding the reporter protein luciferase and serial dilutions of non-modified and modified bouganin proteins are co-incubated. The levels of translated luciferase are readily detected using a luminescence counter following addition of a substrate reagent. The measured luminescence is inversely proportional to the bouganin N-glycosidase activity present in the reaction. It is usual to provide a negative control such as an in-active bouganin protein for example containing a Y70A substitution.
The activity of the wild-type and modified (mutant) bouganin proteins was tested by measuring their ability to inhibit protein synthesis in a cell-free protein synthesis assay.
A mixture of 10 μl TNT Coupled Transcription/Translation mix (Promega), 20 […] methionine, 120 ng pT7 luciferase DNA (Promega) and serial dilutions of WT and mutant bouganin protein in a final volume of 12.5 μl were incubated at 30° C. for one hour, after which the reaction was stopped by addition of 100 μl “SteadyGlow” luciferase assay reagent (Promega). The luciferase activity was measured using a Wallac luminescence counter. Active bouganin protein is detected as a decrease in measured luciferase activity. Each modified bouganin protein was tested in at least 5 concentrations, with each data point in duplicate. Positive and negative controls were included in each experiment.
In each instance results are expressed relative to wild-type protein activity.
For “Bou156: modified bouganin with V123A, D127A, Y133N, I152A (SEQ ID No 13)”, the “Activity in luciferase assay” value was “++”.
With “Bou157: modified bouganin with V123A, D127A, Y133Q, I152A (SEQ ID No 14)” the “Activity in luciferase assay” value was “++”.

Same assay, conditions: single substitution variants, relative to wild-type protein
With “D127A: modified bouganin protein with substitution D127A” the “Activity in luciferase assay” value was “++”.
In the case of “D127G: modified bouganin protein with substitution D127G”, the “Activity in luciferase assay” value is reported as “++”.
With “E129G: modified bouganin protein with substitution E129G” the “Activity in luciferase assay” value was “++”.
In the case of “E129K: modified bouganin protein with substitution E129K”, the “Activity in luciferase assay” value is reported as “−−”.
For “E129Q: modified bouganin protein with substitution E129Q”, the “Activity in luciferase assay” value was “+/− (within 3-fold of WT activity.)”.
“E129R: modified bouganin protein with substitution E129R” was tested, and the “Activity in luciferase assay” value was “−−”.
In the case of E151T I152E, the “Activity in luciferase assay” value is reported as “−−”.
For “F155H: modified bouganin protein with substitution F155H”, the “Activity in luciferase assay” value was “−−”.
In the case of “F155P: modified bouganin protein with substitution F155P”, the “Activity in luciferase assay” value is reported as “−−”.
“I152A: modified bouganin protein with substitution I152A” was tested, and the “Activity in luciferase assay” value was “++”.
With “I152E: modified bouganin protein with substitution I152E” the “Activity in luciferase assay” value was “−−”.
“I152Q: modified bouganin protein with substitution I152Q” was tested, and the “Activity in luciferase assay” value was “++”.
For “I158P: modified bouganin protein with substitution I158P”, the “Activity in luciferase assay” value was “−−”.
For “V123A: modified bouganin protein with substitution V123A”, the “Activity in luciferase assay” value was “++”.
For “V123D: modified bouganin protein with substitution V123D”, the “Activity in luciferase assay” value was “−−”.
In the case of “V123E: modified bouganin protein with substitution V123E”, the “Activity in luciferase assay” value is reported as “−−”.
With “V123G: modified bouganin protein with substitution V123G” the “Activity in luciferase assay” value was “−−”.
For “V123H: modified bouganin protein with substitution V123H”, the “Activity in luciferase assay” value was “−−”.
For “V123K: modified bouganin protein with substitution V123K”, the “Activity in luciferase assay” value was “−−”.
“V123N: modified bouganin protein with substitution V123N” was tested, and the “Activity in luciferase assay” value was “−−”.
“V123P: modified bouganin protein with substitution V123P” was tested, and the “Activity in luciferase assay” value was “−−”.
In the case of “V123Q: modified bouganin protein with substitution V123Q”, the “Activity in luciferase assay” value is reported as “++”.
For “V123R: modified bouganin protein with substitution V123R”, the “Activity in luciferase assay” value was “−−”.
In the case of “V123S: modified bouganin protein with substitution V123S”, the “Activity in luciferase assay” value is reported as “−−”.
With “V123T: modified bouganin protein with substitution V123T” the “Activity in luciferase assay” value was “+/− (within 3-fold of WT activity.)”.
In the case of “Y70A: inactive bouganin with Y70A substitution, negative control (SEQ ID NO. 129) [reference compound]”, the “Activity in luciferase assay” value is reported as “−−”.
For “Y133A: modified bouganin protein with substitution Y133A”, the “Activity in luciferase assay” value was “++”.
For “Y133D: modified bouganin protein with substitution Y133D”, the “Activity in luciferase assay” value was “++”.
For “Y133E: modified bouganin protein with substitution Y133E”, the “Activity in luciferase assay” value was “+/− (within 3-fold of WT activity.)”.
In the case of “Y133G: modified bouganin protein with substitution Y133G”, the “Activity in luciferase assay” value is reported as “++”.
In the case of “Y133H: modified bouganin protein with substitution Y133H”, the “Activity in luciferase assay” value is reported as “++”.
“Y133K: modified bouganin protein with substitution Y133K” was tested, and the “Activity in luciferase assay” value was “++”.
For “Y133N: modified bouganin protein with substitution Y133N”, the “Activity in luciferase assay” value was “++”.
For “Y133P: modified bouganin protein with substitution Y133P”, the “Activity in luciferase assay” value was “−−”.
In the case of “Y133Q: modified bouganin protein with substitution Y133Q”, the “Activity in luciferase assay” value is reported as “++”.
“Y133R: modified bouganin protein with substitution Y133R” was tested, and the “Activity in luciferase assay” value was “++”.
With “Y133S: modified bouganin protein with substitution Y133S” the “Activity in luciferase assay” value was “++”.
For “Y133T: modified bouganin protein with substitution Y133T”, the “Activity in luciferase assay” value was “++”.

Same assay, conditions: when conjugated to the Fab fragment (FIG. 12)
“Bou156: modified bouganin with V123A, D127A, Y133N, I152A (SEQ ID No 13)” was tested, and the “potency in cell-free assay” value was “retained its potency”.
